We go through twelve molecules from patent US8604217B2, “Compound, a process for its preparation, a pharmaceutical composition, use of a compound, a method for modulating or regulating serine/threonine kinases and a serine/threonine kinases modulating agent” (Selvita S.A., priority 2009, dated 2013).

For test [1], the system named is human myelomonocytic, biphenotypic leukemia MV4-11 cells. As to the kind of experiment: Growth inhibition test (MTS) on MV4-11 cells. In kind it is cell-based. The note with it: Homo sapiens, MV4-11, 72 hours, read-out: MV-4-11 ED50. As for the experimental part:
(§1) Ten thousand cells of human myelomonocytic, biphenotypic leukemia MV4-11 were inoculated into each well of a 96-well microplate (manufactured by Corning Corp.) using Iscove's MDM medium (culture medium) containing 10% fetal calf serum (FCS). Next day, a dimethyl sulfoxide (DMSO) solution of each test compound prepared in a concentration of 10 mmol/L was further diluted with culture medium to the desired concentrations (0.1, 0.5, 1, 2.5, 5 and 10 micromol/L), and the diluted solution was added to each well. The individual wells were further cultured in 5% carbon dioxide at 37° C. for 72 hours. After completion of the culture, 10 μl MTS (3-(4,5-Dimethyl-2-thiazolyl)-5-(carboxymethoxyphenyl)-2-(4-sulfophenyl)-2H-tetrazolium, inner salt assay (CellTiter96® AQueous One Solution Cell Proliferation Assay, Promega) was added to each well, and culturing was performed in 5% carbon dioxide at 37° C. for 2 hours. Using a microplate spectrophotometer (Synergy 2 multi-mode microplate reader (BioTek)), the absorbance of each well was measured at 490 nm. The value for cells not incorporated with a test compound was designated as 100%. By comparing these values with the absorbance difference obtained at the well in which each test compound was added, the cell viability (% viability) after treatment with the test compound was calculated.

Test [2] concerns human acute lymphocytic leukemia E6.1 Jurkat cells. As to the kind of experiment: Growth inhibition test (MTS) on E6.1 Jurkat cells. The note with it: 72 hours, read-out: Jurkat ED50. Format: cell-based. As for the experimental part: as §1, with “Twenty” for “Ten”, “acute lumphocytic” for “myelomonocytic, biphenotypic”, “E6.1 Jurkat” for “MV4-11”, “[…]” for “Iscove's MDM”
Test [3] deals with human hepatoma HepG2 cells. The test is described as follows: Growth inhibition test (MTS) on HepG2 cells. In kind it is cell-based. The note with it: 72 hours, read-out: HepG2 ED50. As for the experimental part: as §1, with “Two” for “Ten”, “hepatoma HepG2” for “myelomonocytic, biphenotypic leukemia MV4-11”, “DMEM” for “Iscove's MDM”
The next test deals with PIM-1 (Homo sapiens (Human), UniProt P11309). The test is described as follows: Luminometric kinase assay for PIM1 kinase (Kinase-Glo). The note with it: 1 μM ATP, 25 min at RT. In kind it is biochemical. As for the experimental part:
Kinase assay was performed using luminescent Kinase-Glo® (Promega) system. The Kinase-Glo® Luminescent Kinase Assay Platform provides a homogeneous, high-throughput screening method for measuring kinase activity by quantifying the amount of ATP remaining in solution following a kinase reaction. The luminescent signal is correlated with the amount of ATP present and is inversely correlated with the kinase activity. Appropriate amounts of both kinase and substrate were mixed in 96-well, white wall plate in the reaction buffer (8 mM MOPS/NaOH, pH7.0, 0.2 mM EDTA, 2 mM MgCl2). Tested compounds were diluted in DMSO and serial dilutions starting with 1 μM were added to the palates. Reaction was initiated by adding 1 μM of ATP solution and conducted for 25 min. at RT. Luminescent signal was detected by adding Kinase-Glo® reagent and measured using a microplate spectrophotometer (Synergy 2 multi-mode microplate reader (BioTek)). IC50 values were obtained by fitting sigmoidal dose-response curve (variable slope) using GraphPad Prism software.

For test [4], the system named is human prostate adenocarcinoma PC3 cells. The test is described as follows: Growth inhibition test (MTS) on PC3 cells. In kind it is cell-based. The note with it: Homo sapiens, PC-3, 72 hours, read-out: PC-3 ED50.
Excerpt: as §1, with “Two” for “Ten”, “prostate adenocarcinoma PC3” for “myelomonocytic, biphenotypic leukemia MV4-11”, “Corp.), and” for “Corp.)”, “F12K (Ham's F12:[…] 1:1)” for “Iscove's MDM”

In test [5] the test system is human breast adenocarcinoma MCF7 cells. The test is described as follows: Growth inhibition test (MTS) on MCF7 cells. In kind it is cell-based. The note with it: Homo sapiens, MCF7, 72 hours, read-out: MCF-7 ED50. As for the experimental part: as §1, with “Two” for “Ten”, “breast adenocarcinoma MCF7” for “myelomonocytic, biphenotypic leukemia MV4-11”, “Corp.), and” for “Corp.)”, “DMEM” for “Iscove's MDM”

Chain of PIM-1 (P11309 whole entry): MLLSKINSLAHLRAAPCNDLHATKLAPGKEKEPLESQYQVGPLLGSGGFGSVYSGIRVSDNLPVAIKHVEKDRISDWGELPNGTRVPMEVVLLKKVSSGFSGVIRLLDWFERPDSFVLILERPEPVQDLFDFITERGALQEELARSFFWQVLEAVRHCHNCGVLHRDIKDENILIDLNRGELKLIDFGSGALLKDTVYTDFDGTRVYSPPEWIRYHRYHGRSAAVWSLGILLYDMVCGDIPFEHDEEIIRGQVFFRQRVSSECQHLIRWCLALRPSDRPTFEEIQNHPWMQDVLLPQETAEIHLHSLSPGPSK

`Brc1c(Br)c(Br)c2[nH]c(N3CCN(CCN4CCCCC4)CC3)nc2c1Br` [Compound 76, 4,5,6,7-tetrabromo-2-(4-(2-(piperidin-1-yl)ethyl)piperazin-1-yl)-1H-benzo[d]imidazole]: the IC50 came out at 5.27 µM in test [1], 3.06 µM in test [2], 4.54 µM in test [3] and 0.117 µM on PIM-1.
In the case of `CN(C)CCN(Cc1ccccc1)c1nc2c(Br)c(Br)c(Br)c(Br)c2[nH]1` [Compound 158, N-benzyl-4,5,6,7-tetrabromo-N-(2-(dimethylamino)ethyl)-1H-benzo[d]imidazol-2-amine], the IC50 came to 8.83 µM in test [4]; 4.86 µM in test [1]; 8.42 µM in test [2]; 3.58 µM in test [3]; 8.31 µM in test [5]; 0.0627 µM at PIM-1.
For `CN(C)CCN1CCC(CNc2nc3c(Br)c(Br)c(Br)c(Br)c3[nH]2)C1` (stereo not drawn) [Compound 166, 4,5,6,7-tetrabromo-N-((1-(2-(dimethylamino)ethyl)pyrrolidin-3-yl)methyl)-1H-benzo[d]imidazol-2-amine], the IC50 in test [4] came out at 3.15 µM; in test [1], 1.19 µM; in test [2], 4.92 µM; in test [3] it was 2.62 µM; in test [5], 4.93 µM; on PIM-1 it was 0.051 µM.
In the case of `Brc1c(Br)c(Br)c2[nH]c(NCCCN3CCOCC3)nc2c1Br` [Compound 192, 4,5,6,7-tetrabromo-N-(3-morpholinopropyl)-1H-benzo[d]imidazol-2-amine], the IC50 came to 5.13 µM in test [1], 7.67 µM in test [2], 6.23 µM in test [3] and 0.0454 µM on PIM-1.
Turning to `Brc1cccc(Nc2nc3c(Br)c(Br)c(Br)c(Br)c3[nH]2)c1` [Compound 236, 4,5,6,7-tetrabromo-N-(3-bromophenyl)-1H-benzo[d]imidazol-2-amine], the IC50 is 2.5 µM in test [4]; 1.6 µM in test [1]; 4.4 µM in test [2]; 2.2 µM in test [3]; 4.2 µM in test [5].
Take `Brc1c(Br)c(Br)c2[nH]c(NCCN3CCN(c4ncccn4)CC3)nc2c1Br` [Compound 247, 4,5,6,7-tetrabromo-N-(2-(4-(pyrimidin-2-yl)piperazin-1-yl)ethyl)-1H-benzo[d]imidazol-2-amine]: the IC50 in test [1] was 5.96 µM; in test [2], 7.84 µM; in test [3] it was 9.01 µM; in test [5], 7.15 µM; at PIM-1, 0.109 µM.
As for `CN1CCCN(c2nc3c(Br)c(Br)c(Br)c(Br)c3[nH]2)CC1` [Compound 256, 4,5,6,7-tetrabromo-2-(4-methyl-1,4-diazepan-1-yl)-1H-benzo[d]imidazole], the IC50 in test [4] came to 5.18 µM; in test [1] it was 2.6 µM; in test [2], 4.86 µM; in test [3] it was 3.39 µM; in test [5], 5.11 µM.
On the same counts, the results for `Brc1c(Br)c(Br)c2[nH]c(Nc3ccc4ccccc4c3)nc2c1Br` [Compound 259, 4,5,6,7-tetrabromo-N-(naphthalen-3-yl)-1H-benzo[d]imidazol-2-amine] are 3.51 µM, 6.44 µM, 7.11 µM, 5.49 µM and 5.9 µM.
As to `Fc1ccc(CNc2nc3c(Br)c(Br)c(Br)c(Br)c3[nH]2)cc1F` [Compound 296, N-(3,4-difluorobenzyl)-4,5,6,7-tetrabromo-1H-benzo[d]imidazol-2-amine], the IC50 in test [4] was found to be 4.21 µM; in test [1], 4.15 µM; in test [2], 8.12 µM; in test [3] it was 5.91 µM; on PIM-1, 0.17 µM.
For `OC1CCC(Nc2nc3c(Br)c(Br)c(Br)c(Br)c3[nH]2)CC1` (stereo not drawn) [Compound 309, 4-(4,5,6,7-tetrabromo-1H-benzo[d]imidazol-2-ylamino)cyclohexanol], the IC50 in test [1] was determined as 5.54 µM; in test [2], 8.18 µM; in test [3], 4.87 µM; at PIM-1 it was 0.0159 µM.
As for `Nc1cc(Br)c(Br)cc1Nc1nc2c(Br)c(Br)c(Br)c(Br)c2[nH]1` [Compound 317, 4,5-dibromo-N1-(4,5,6,7-tetrabromo-1H-benzo[d]imidazol-2-yl)benzene-1,2-diamine], the IC50 in test [1] was found to be 3.95 µM; in test [2], 7.05 µM; in test [3], 4.33 µM; in test [5] it was 6.63 µM; on PIM-1, 0.598 µM.
In the case of `Brc1c(Br)c(Br)c2[nH]c(Nc3ccccn3)nc2c1Br` [Compound 329, 4,5,6,7-tetrabromo-N-(pyridin-2-yl)-1H-benzo[d]imidazol-2-amine], the IC50 is 4.69 µM in test [4], 4.45 µM in test [2] and 0.047 µM on PIM-1.
